Structures are written as SMILES. Converted amounts (≈) assume the structure as drawn.

The target of the first data set is ATP-dependent translocase ABCB1 (Homo sapiens, UniProt P08183). Put plainly: Inhibition of paclitaxel stimulated- P-gp ATPase activity (unknown origin).
ATP-dependent translocase ABCB1, sequence (P08183 whole entry): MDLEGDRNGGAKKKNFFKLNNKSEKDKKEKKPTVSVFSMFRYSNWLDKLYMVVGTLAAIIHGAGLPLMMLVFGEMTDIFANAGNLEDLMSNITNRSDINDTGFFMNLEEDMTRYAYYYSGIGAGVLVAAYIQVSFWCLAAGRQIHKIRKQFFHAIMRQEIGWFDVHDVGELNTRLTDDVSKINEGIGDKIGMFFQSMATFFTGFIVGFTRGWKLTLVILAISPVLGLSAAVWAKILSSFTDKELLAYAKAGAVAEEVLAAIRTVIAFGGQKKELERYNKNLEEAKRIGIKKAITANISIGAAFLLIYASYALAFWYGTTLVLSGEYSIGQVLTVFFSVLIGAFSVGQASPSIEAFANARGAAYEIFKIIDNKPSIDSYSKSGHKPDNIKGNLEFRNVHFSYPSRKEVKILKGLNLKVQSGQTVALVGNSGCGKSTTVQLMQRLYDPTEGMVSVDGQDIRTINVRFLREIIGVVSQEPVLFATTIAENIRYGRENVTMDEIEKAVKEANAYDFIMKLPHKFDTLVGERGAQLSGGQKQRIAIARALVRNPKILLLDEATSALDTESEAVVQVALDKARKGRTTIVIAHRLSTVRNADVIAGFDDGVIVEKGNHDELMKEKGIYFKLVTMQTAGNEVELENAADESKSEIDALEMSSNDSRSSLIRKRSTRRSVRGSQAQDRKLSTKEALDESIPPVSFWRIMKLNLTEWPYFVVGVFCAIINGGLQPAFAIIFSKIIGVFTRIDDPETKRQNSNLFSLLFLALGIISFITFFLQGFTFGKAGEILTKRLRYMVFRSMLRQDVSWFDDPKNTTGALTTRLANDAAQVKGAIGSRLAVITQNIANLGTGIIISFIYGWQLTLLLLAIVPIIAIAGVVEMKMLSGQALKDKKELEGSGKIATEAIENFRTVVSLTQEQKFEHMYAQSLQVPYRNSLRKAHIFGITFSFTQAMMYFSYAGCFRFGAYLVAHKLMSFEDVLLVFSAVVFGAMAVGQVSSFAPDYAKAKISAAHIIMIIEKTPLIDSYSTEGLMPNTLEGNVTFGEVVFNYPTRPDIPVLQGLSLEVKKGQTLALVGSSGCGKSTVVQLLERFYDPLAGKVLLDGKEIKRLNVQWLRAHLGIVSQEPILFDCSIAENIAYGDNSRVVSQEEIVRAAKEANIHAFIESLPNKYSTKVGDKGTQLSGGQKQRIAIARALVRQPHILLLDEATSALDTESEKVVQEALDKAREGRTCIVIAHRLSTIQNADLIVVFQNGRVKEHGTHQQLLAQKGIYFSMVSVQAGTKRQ
Details: not given
By IC50 is commonly meant the concentration that gives 50% inhibition. A lower IC50 goes with greater potency in that assay. `COc1cc2c(cc1OC)CN(CCc1ccc(NC(=O)c3cc(OC)c(OC)cc3NC(=O)c3cnc4ccccc4c3)cc1)CC2` had a half-inhibitory concentration (IC50) of 32.7 nM.

The next data set has as its system MES-SA/Dx5. Put plainly: Selectivity index, ratio of EC50 for inhibition of P-gp (unknown origin) expressed in MES-SA/DX5 cells assessed as increase in paclitaxel-induced cytotoxicity in absence of compound to EC50 for inhibition of P-gp (unknown origin) expressed in MES-SA/DX5 cells assessed as increase in paclitaxel-induced cytotoxicity in presence of compound. In kind it is cell-based. Particulars: Homo sapiens.
Take `COc1cc2c(cc1OC)CN(CCc1ccc(-n3nnc(-c4cc(OC)c(OC)cc4NC(=O)c4cccnc4)n3)cc1)CC2`: the Ratio EC50 was found to be 3. As for `COc1cc2c(cc1OC)CN(CCc1ccc(-n3nnc(-c4cc(OC)c(OC)cc4NC(=O)c4cnc5ccccc5c4)n3)cc1)CC2`, the Ratio EC50 turned out to be 20.3. With `COc1cc2c(cc1OC)CN(CCc1ccc(-n3nnc(-c4cc(OC)c(OC)cc4NC(=O)c4nccc5ccccc45)n3)cc1)CC2`, the Ratio EC50 stood at 1.8. For `COc1cc2c(cc1OC)CN(CCc1ccc(-n3nnc(-c4cc(OC)c(OC)cc4NC(=O)c4cc(=O)c5cc(C)ccc5o4)n3)cc1)CC2`, the Ratio EC50 turned out to be 73.4.

In the case of `COc1cc2c(cc1OC)CN(CCc1ccc(-n3nnc(-c4cc(OC)c(OC)cc4NC(=O)c4ccsc4)n3)cc1)CC2`, the Ratio EC50 was determined as 4.5. Still for that read-out and setting: in the case of `COc1cc2c(cc1OC)CN(CCc1ccc(-n3nnc(-c4cc(OC)c(OC)cc4NC(=O)c4ccc5ccccc5c4)n3)cc1)CC2` it was 2.6; in that of `COc1cc2c(cc1OC)CN(CCc1ccc(-n3nnc(-c4cc(OC)c(OC)cc4NC(=O)c4ccoc4)n3)cc1)CC2`, 3.5. On the same count and under the same terms, in the case of `COc1cc2c(cc1OC)CN(CCc1ccc(-n3nnc(-c4cc(OC)c(OC)cc4NC(=O)c4cc(=O)c5cc(F)ccc5o4)n3)cc1)CC2` it was 39.3. Consider `COc1cc2c(cc1OC)CN(CCc1ccc(-n3nnc(-c4cc(OC)c(OC)cc4NC(=O)c4cccc5cccnc45)n3)cc1)CC2`, for which the Ratio EC50 amounted to 4.3. In the case of `COc1cc2c(cc1OC)CN(CCc1ccc(-n3nnc(-c4cc(OC)c(OC)cc4NC(=O)c4ccccc4)n3)cc1)CC2`, the Ratio EC50 was 3.4. Regarding `COc1cc2c(cc1OC)CN(CCc1ccc(-n3nnc(-c4cc(OC)c(OC)cc4NC(=O)c4cc5ccccc5cn4)n3)cc1)CC2`, the Ratio EC50 was 3.5. In the case of `COc1cc2c(cc1OC)CN(CCc1ccc(-n3nnc(-c4cc(OC)c(OC)cc4NC(=O)c4cc(=O)c5c(OC)cccc5o4)n3)cc1)CC2`, the Ratio EC50 was 49.9. In the case of `COc1cc2c(cc1OC)CN(CCc1ccc(-n3nnc(-c4cc(OC)c(OC)cc4NC(=O)c4coc5ccccc5c4=O)n3)cc1)CC2`, the Ratio EC50 came out at 2.1. In the case of `COc1cc2c(cc1OC)CN(CCc1ccc(-n3nnc(-c4cc(OC)c(OC)cc4NC(=O)c4ccc5ccccc5n4)n3)cc1)CC2`, the Ratio EC50 was 2.7.

In the case of `COc1cc2c(cc1OC)CN(CCc1ccc(-n3nnc(-c4cc(OC)c(OC)cc4NC(=O)c4ccc(F)c(F)c4)n3)cc1)CC2`, the Ratio EC50 is 3.7. On to `COc1cc2c(cc1OC)CN(CCc1ccc(-n3nnc(-c4cc(OC)c(OC)cc4NC(=O)c4cnccn4)n3)cc1)CC2`, for which the Ratio EC50 stood at 3. In the case of `COc1cc2c(cc1OC)CN(CCc1ccc(-n3nnc(-c4cc(OC)c(OC)cc4NC(=O)c4cncc5ccccc45)n3)cc1)CC2`, the Ratio EC50 is 3.3.

Test system in a further data set: not listed separately
In words: Aqueous solubility of compound at pH 5.5. Particulars: aqueous solution. In kind it is physicochemical.
By solubility is commonly meant how much of the substance goes into solution per volume. The compound `COc1cc2c(cc1OC)CN(CCc1ccc(NC(=O)c3cc(OC)c(OC)cc3NC(=O)c3cnc4ccccc4c3)cc1)CC2` gave a solubility of 2500 µg/mL (≈ 3870 µM).

Test system in the next data set: not listed separately
In words: Aqueous solubility of compound at neutral pH. In kind it is physicochemical. Particulars: aqueous solution.
On to `COc1cc2c(cc1OC)CN(CCc1ccc(NC(=O)c3cccc4c(=O)c5cccc(OC)c5[nH]c34)cc1)CC2`, for which the solubility stood at 0.123 µg/mL (≈ 0.218 µM).

Test system in a further data set: not listed separately
Put plainly: Apparent permeability from apical to basolateral side in MDCK-II cells after 120 mins by LC-MS/MS analysis. It counts as ADME, cell-based, Canis lupus familiaris. Particulars: dog.
As a reminder, the Papp A→B is how fast a substance crosses the layer from the apical side. Take `O[C@@H](COc1cccc2ncccc12)CN1CCN([C@@H]2c3ccccc3[C@@H]3[C@H](c4ccccc42)C3(F)F)CC1` [ZOSUQUIDAR]: the Papp A→B at 2 h amounted to 1.1 ×10⁻⁶ cm/s. Consider `COc1cc2c(cc1OC)CN(CCc1ccc(NC(=O)c3cccc4c(=O)c5cccc(OC)c5[nH]c34)cc1)CC2`, for which the Papp A→B at 2 h worked out at 0.1 ×10⁻⁶ cm/s.

Take `COc1cc2c(cc1OC)CN(CCc1ccc(NC(=O)c3cc(OC)c(OC)cc3NC(=O)c3cnc4ccccc4c3)cc1)CC2`: the apical-to-basolateral permeability (Papp A→B) at 2 h was 1.1 ×10⁻⁶ cm/s.

A further data set deals with T1, Broad substrate specificity ATP-binding cassette transporter ABCG2 (Homo sapiens, UniProt Q9UNQ0).
T1 sequence (Q9UNQ0 whole entry): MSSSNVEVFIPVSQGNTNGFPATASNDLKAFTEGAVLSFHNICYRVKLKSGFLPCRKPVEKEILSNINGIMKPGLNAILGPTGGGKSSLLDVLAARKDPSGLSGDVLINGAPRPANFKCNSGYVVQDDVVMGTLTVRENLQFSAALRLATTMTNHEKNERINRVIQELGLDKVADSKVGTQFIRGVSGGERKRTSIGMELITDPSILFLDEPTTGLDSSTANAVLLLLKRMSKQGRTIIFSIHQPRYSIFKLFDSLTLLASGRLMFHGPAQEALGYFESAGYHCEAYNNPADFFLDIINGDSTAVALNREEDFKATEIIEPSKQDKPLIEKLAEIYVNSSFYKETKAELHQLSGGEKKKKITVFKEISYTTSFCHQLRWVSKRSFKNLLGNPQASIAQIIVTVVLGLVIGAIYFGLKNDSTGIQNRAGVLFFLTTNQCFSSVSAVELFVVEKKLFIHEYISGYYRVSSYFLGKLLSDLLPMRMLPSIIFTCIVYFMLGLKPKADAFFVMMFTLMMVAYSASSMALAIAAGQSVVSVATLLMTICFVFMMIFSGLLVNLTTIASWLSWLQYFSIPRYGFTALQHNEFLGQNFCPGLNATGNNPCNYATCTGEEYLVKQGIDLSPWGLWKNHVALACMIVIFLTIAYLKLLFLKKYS
Put plainly: Inhibition of sulfasalazine-stimulated BCRP ATP ase activity (unknown origin).
Details: not given
In turn, `COc1cc2c(cc1OC)CN(CCc1ccc(NC(=O)c3cc(OC)c(OC)cc3NC(=O)c3cnc4ccccc4c3)cc1)CC2` returned an IC50 of 183 nM.

(Values after ChEMBL document CHEMBL4825663 (J Med Chem, 2021).)
